Source: PubChem BioAssay AID1918935 (Molecular Pharmacology Branch, DTP, NCI, 2023)
Values joined by “and” are separate entries in the source; they are usually repeats but may differ in a detail not shown here. Identical values can stand only once.

Test system: 324938-238-R-J1-PDC complex spheroid viability
Assay: Anticancer human tumor 324938-238-R-J1-PDC patient-derived bladder carcinoma cell line growth inhibition
Conditions: for viability, T/C: stronger effect = lower value
Procedure, shortened: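 Multicellular complex spheroids of tumor cells with human endothelial cells (HUVEC) and mesenchymal stem cells; the LSD1 inhibitor iadademstat was combined with standard-of-care or investigational agents. Top concentration at or near clinical Cmax, half-log dilutions; final DMSO ≤0.25%.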

[1] = curve of first compound, second compound 0.1 µM
[2] = curve of first compound, second compound 0.316 µM
[3] = curve of first compound, second compound 1 µM
[4] = curve of first compound, second compound 3.16 µM
[5] = curve of first compound, second compound 10 µM
[6] = second compound 0.1 µM, first compound 0.00316 µM
[7] = second compound 0.1 µM, first compound 0.01 µM
[8] = second compound 0.1 µM, first compound 0.0316 µM
[9] = second compound 0.1 µM, first compound 0.1 µM
[10] = second compound 0.1 µM, first compound 0.316 µM
[11] = second compound 0.1 µM, first compound 1 µM
[12] = second compound 0.316 µM, first compound 0.00316 µM
[13] = second compound 0.316 µM, first compound 0.01 µM
[14] = second compound 0.316 µM, first compound 0.0316 µM
[15] = second compound 0.316 µM, first compound 0.1 µM
[16] = second compound 0.316 µM, first compound 0.316 µM
[17] = second compound 0.316 µM, first compound 1 µM
[18] = second compound 1 µM, first compound 0.00316 µM
[19] = second compound 1 µM, first compound 0.01 µM
[20] = second compound 1 µM, first compound 0.0316 µM
[21] = second compound 1 µM, first compound 0.1 µM
[22] = second compound 1 µM, first compound 0.316 µM
[23] = second compound 1 µM, first compound 1 µM
[24] = second compound 3.16 µM, first compound 0.00316 µM
[25] = second compound 3.16 µM, first compound 0.01 µM
[26] = second compound 3.16 µM, first compound 0.0316 µM
[27] = second compound 3.16 µM, first compound 0.1 µM
[28] = second compound 3.16 µM, first compound 0.316 µM
[29] = second compound 3.16 µM, first compound 1 µM
[30] = second compound 10 µM, first compound 0.00316 µM
[31] = second compound 10 µM, first compound 0.01 µM
[32] = second compound 10 µM, first compound 0.0316 µM
[33] = second compound 10 µM, first compound 0.1 µM
[34] = second compound 10 µM, first compound 0.316 µM
[35] = second compound 10 µM, first compound 1 µM
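Also: spheroids also contain HUVEC and human MSCs and agents combined with iadademstat; spheroids exposed to agents for 7 days before readout.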

| SMILES | IC50 [1] | IC50 [2] | IC50 [3] | IC50 [4] | IC50 [5] | viability, T/C [6] | viability, T/C [7] | viability, T/C [8] | viability, T/C [9] | viability, T/C [10] | viability, T/C [11] | viability, T/C [12] | viability, T/C [13] | viability, T/C [14] | viability, T/C [15] | viability, T/C [16] | viability, T/C [17] | viability, T/C [18] | viability, T/C [19] | viability, T/C [20] | further results |
| --- | --- | --- | --- | --- | --- | --- | --- | --- | --- | --- | --- | --- | --- | --- | --- | --- | --- | --- | --- | --- | --- |
| COc1cc(Nc2ncc3c(n2)-c2ccc(Cl)cc2C(c2c(F)cccc2OC)=NC3)ccc1C(=O)O + NC1CCC(NC2CC2c2ccccc2)CC1 | 0.0208 µM | 0.0188 µM | 0.0185 µM | 0.0154 µM | 0.0207 µM | 75.9% | 67.5% | 39.9% | 23% | 20.4% | 17.9% | 79.8% | 65.7% | 37.4% | 20.5% | 18.3% | 20.9% | 73.3% | 63.5% | 38.5% | viability, T/C [21]: 19.6%; viability, T/C [22]: 21.9%; viability, T/C [23]: 19.4%; viability, T/C [24]: 74.2%; viability, T/C [25]: 56.1%; viability, T/C [26]: 39.9%; viability, T/C [27]: 24.9%; viability, T/C [28]: 21.7%; viability, T/C [29]: 21.2%; viability, T/C [30]: 70.7%; viability, T/C [31]: 65.3%; viability, T/C [32]: 40%; viability, T/C [33]: 31%; viability, T/C [34]: 22.7%; viability, T/C [35]: 23.1% |
| Nc1ncn(C2CC(O)C(CO)O2)c(=O)n1 (configuration not stated) + NC1CCC(NC2CC2c2ccccc2)CC1 | 0.177 µM | 0.256 µM | 0.159 µM | 0.129 µM | 0.237 µM | 71.8% | 66% | 59.3% | 56.1% | 44% | 40.3% | 74.9% | 67.1% | 68.4% | 55.1% | 45.6% | 42% | 73.2% | 58.7% | 60.4% | viability, T/C [21]: 50.7%; viability, T/C [22]: 46.2%; viability, T/C [23]: 47%; viability, T/C [24]: 61.9%; viability, T/C [25]: 58.6%; viability, T/C [26]: 54.3%; viability, T/C [27]: 53.4%; viability, T/C [28]: 44.5%; viability, T/C [29]: 39.5%; viability, T/C [30]: 63.5%; viability, T/C [31]: 67.3%; viability, T/C [32]: 57.9%; viability, T/C [33]: 59.1%; viability, T/C [34]: 45.2%; viability, T/C [35]: 37% |
| COc1cc(Nc2ncc3c(n2)-c2ccc(Cl)cc2C(c2c(F)cccc2OC)=NC3)ccc1C(=O)O + NC1CC1c1ccc(-c2cccc(O)c2)cc1 | 0.0107 µM | 0.00945 µM | 0.0119 µM | 0.0137 µM | 0.0108 µM | 76.1% | 51% | 28.1% | 13.9% | 18.2% | 13.9% | 69.5% | 48.3% | 30% | 16% | 15.8% | 14.8% | 63% | 54.3% | 26.2% | viability, T/C [21]: 16.5%; viability, T/C [22]: 17.6%; viability, T/C [23]: 15.1%; viability, T/C [24]: 62.6%; viability, T/C [25]: 57.6%; viability, T/C [26]: 30%; viability, T/C [27]: 18.1%; viability, T/C [28]: 18.8%; viability, T/C [29]: 16.5%; viability, T/C [30]: 57.4%; viability, T/C [31]: 51.2%; viability, T/C [32]: 29.5%; viability, T/C [33]: 19.4%; viability, T/C [34]: 19.7%; viability, T/C [35]: 25.8% |
| CC1COCCN1c1cc(-c2ccnn2C)c2ccnc(-c3ccn[nH]3)c2n1 (configuration not stated) + NC1CC1c1ccc(-c2cccc(O)c2)cc1 | 0.0229 µM | 0.0176 µM | 0.0129 µM | 0.0158 µM | 0.0129 µM | 90.1% | 73.6% | 40.5% | 20.6% | 14.1% | 12.1% | 74% | 61.5% | 38.1% | 20.6% | 13.3% | 11.6% | 66.7% | 54.7% | 35% | viability, T/C [21]: 21.5%; viability, T/C [22]: 14.3%; viability, T/C [23]: 10.8%; viability, T/C [24]: 73.9%; viability, T/C [25]: 57%; viability, T/C [26]: 39.3%; viability, T/C [27]: 22.1%; viability, T/C [28]: 14.5%; viability, T/C [29]: 12%; viability, T/C [30]: 69.6%; viability, T/C [31]: 54.1%; viability, T/C [32]: 36.4%; viability, T/C [33]: 24.2%; viability, T/C [34]: 17.9%; viability, T/C [35]: 13.7% |
| CC[C@@]1(O)C(=O)OCc2c1cc1n(c2=O)Cc2cc3c(CN(C)C)c(O)ccc3nc2-1 |  |  |  |  |  |  |  |  |  |  |  |  |  |  |  |  |  |  |  |  | viability, T/C (compound 0.000316 µM): 101% and 94.5%; viability, T/C (compound 0.001 µM): 93% and 83.5%; viability, T/C (compound 0.00316 µM): 31.2% and 27.9%; viability, T/C (compound 0.01 µM): 8.43% and 7.17%; viability, T/C (compound 0.0316 µM): 8.29% and 8.05%; viability, T/C (compound 0.1 µM): 8.03% and 7.71%; IC50 (curve of compound): 0.00223 µM and 0.002 µM |
